Reference: patent US20250257069A1, “JAK INHIBITOR ANALOGS, FORMULATIONS, AND USES THEREOF” (THE REGENTS OF THE UNIVERSITY OF MICHIGAN, priority 2022, published 2025)
Like-named read-outs stand apart in the source and are kept apart here.

Tests used:
TYK2 = TYK2 (Homo sapiens (Human), UniProt P29597); assay: Kinase-Glo Max TYK2 kinase assay (BPS Bioscience kit); type: biochemical; details: purified enzyme, 0.01-10,000 nM
Protocol: (§1) In vitro activity to inhibit JAK enzymes: JAK1, JAK2, JAK3, TYK2 assay kits were obtained from BPS Bioscience (San Diego, CA, USA). The assays were conducted according to manufacturer's protocols in 96-well microplates. Briefly, master mixtures (25 μL per well) were prepared for JAK1 and TYK2 assays (6 μL 5× kinase assay buffer+1 μL ATP (500 μM)+5 μL×10 IRS1-tide+13 μL distilled water) or for JAK2 and JAK3 assays (6 μl 5× kinase assay buffer+1 μl ATP (500 μM)+1 μl PTK substrate Poly(Glu:Tyr 4:1) (10 mg/mL)+17 μL distilled water), respectively. […] The reaction mixtures were incubated at 30° C. for 40 minutes. Finally, 50 μL of Kinase-Glo Max reagent (Promega, Madison, WL USA) was added to each well and the reactions were performed in darkness for 15 minutes at room temperature. The luminescence of the reaction mixture was read on a Synergy 2 microplate reader (Biotek).

SET-2 cells = assay: Anti-proliferative assay in SET-2 cells (CellTiter 96 Aqueous); type: cell-based, Human; details: 3 days
Protocol: (§2) Cell Culture and anti-proliferative assay. […] Cells were incubated at 37° C. in a humidified atmosphere of 5% CO2. Cells were seeded into 96-well culture plates at the density of approximately 8000 cells per well and treated with various concentrations of compounds for 3 days in final volumes of 200 μL. Upon end point, cells were treated using CellTiter 96 Aqueous Assay Reagents (Promega Corporation, Madison, USA) according to the provider's instruction. Briefly, MITS and PMS solution were thawed and mixed (20:1, v/v) before use and pipet appropriate amount of the mixed solution into each well of the 96 well assay plates. The plates were incubated for 1-4 hours at 37° C. in a humidified atmosphere of 5% CO2. The absorbance at 490 nm was recorded using CYTATION 5 imaging reader (BioTek, VT, USA). IC50 values were calculated using percentage of growth versus untreated control.

JAK1 = JAK1 (Homo sapiens (Human), UniProt P23458); assay: Kinase-Glo Max JAK1 kinase assay (BPS Bioscience kit); type: biochemical; details: purified enzyme, 0.01-10,000 nM
JAK1, sequence (P23458 whole entry): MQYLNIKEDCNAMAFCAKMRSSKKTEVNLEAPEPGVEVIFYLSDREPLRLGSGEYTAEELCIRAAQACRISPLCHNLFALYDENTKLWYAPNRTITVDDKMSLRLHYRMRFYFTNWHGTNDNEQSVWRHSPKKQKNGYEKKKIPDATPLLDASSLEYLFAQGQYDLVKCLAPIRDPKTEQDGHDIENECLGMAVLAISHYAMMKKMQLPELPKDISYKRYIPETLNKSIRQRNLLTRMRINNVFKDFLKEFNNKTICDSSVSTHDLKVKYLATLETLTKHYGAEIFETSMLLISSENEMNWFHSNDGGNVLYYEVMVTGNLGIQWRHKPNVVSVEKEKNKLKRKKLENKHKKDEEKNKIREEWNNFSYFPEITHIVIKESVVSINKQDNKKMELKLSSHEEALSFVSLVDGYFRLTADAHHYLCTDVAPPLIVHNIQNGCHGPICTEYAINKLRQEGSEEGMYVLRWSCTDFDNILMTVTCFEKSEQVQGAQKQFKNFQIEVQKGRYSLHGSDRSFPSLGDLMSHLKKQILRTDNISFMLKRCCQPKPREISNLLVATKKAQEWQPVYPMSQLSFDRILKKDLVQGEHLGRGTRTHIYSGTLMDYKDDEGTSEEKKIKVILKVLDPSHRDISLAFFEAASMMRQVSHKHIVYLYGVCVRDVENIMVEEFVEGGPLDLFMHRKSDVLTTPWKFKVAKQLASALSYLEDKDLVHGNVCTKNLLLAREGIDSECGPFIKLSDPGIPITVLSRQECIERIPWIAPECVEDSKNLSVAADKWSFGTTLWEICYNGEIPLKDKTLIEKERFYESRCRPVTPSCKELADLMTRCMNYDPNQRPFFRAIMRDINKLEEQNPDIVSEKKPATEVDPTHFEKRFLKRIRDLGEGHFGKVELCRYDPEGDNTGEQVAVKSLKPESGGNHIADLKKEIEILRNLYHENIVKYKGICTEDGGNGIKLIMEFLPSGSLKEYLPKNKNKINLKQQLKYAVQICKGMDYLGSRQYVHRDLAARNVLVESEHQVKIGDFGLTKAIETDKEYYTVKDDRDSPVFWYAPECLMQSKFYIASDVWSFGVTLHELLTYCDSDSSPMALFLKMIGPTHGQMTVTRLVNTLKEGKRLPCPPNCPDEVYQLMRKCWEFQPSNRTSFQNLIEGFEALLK
Protocol: as §1

JAK3 = JAK3 (Homo sapiens (Human), UniProt P52333); assay: Kinase-Glo Max JAK3 kinase assay (BPS Bioscience kit); type: biochemical; details: purified enzyme, 0.01-10,000 nM
JAK3, sequence (P52333 whole entry): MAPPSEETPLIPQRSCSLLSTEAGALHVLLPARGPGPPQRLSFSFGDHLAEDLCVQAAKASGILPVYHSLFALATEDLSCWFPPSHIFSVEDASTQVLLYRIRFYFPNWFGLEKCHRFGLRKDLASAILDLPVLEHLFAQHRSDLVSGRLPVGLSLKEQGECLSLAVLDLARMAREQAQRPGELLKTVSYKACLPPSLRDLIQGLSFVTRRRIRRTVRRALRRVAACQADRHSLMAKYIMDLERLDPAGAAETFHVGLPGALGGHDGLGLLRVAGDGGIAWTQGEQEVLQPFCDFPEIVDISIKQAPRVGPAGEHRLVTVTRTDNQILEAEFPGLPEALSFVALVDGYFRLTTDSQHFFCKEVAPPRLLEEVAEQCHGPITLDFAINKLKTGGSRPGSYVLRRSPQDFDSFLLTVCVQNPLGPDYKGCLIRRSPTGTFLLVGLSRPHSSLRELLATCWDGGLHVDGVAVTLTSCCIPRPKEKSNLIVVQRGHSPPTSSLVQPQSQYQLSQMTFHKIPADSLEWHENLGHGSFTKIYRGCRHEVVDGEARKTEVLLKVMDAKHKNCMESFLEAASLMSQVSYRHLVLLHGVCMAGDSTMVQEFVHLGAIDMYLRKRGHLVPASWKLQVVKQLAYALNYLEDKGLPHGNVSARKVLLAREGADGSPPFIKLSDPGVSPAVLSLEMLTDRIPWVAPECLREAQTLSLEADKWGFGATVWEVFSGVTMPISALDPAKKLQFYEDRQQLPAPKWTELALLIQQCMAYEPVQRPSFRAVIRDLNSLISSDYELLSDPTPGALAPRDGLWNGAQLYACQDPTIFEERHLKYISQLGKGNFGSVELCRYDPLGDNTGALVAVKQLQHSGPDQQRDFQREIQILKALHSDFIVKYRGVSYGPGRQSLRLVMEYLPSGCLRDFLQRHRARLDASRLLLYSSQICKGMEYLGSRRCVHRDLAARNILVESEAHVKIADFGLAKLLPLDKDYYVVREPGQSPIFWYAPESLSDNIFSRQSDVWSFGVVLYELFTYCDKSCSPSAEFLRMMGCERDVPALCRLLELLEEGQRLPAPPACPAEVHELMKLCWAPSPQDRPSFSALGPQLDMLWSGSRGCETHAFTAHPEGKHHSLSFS

JAK2 = JAK2 (Homo sapiens (Human), UniProt O60674); assay: Kinase-Glo Max JAK2 kinase assay (BPS Bioscience kit); type: biochemical; details: purified enzyme, 0.01-10,000 nM
JAK2, sequence (O60674 whole entry): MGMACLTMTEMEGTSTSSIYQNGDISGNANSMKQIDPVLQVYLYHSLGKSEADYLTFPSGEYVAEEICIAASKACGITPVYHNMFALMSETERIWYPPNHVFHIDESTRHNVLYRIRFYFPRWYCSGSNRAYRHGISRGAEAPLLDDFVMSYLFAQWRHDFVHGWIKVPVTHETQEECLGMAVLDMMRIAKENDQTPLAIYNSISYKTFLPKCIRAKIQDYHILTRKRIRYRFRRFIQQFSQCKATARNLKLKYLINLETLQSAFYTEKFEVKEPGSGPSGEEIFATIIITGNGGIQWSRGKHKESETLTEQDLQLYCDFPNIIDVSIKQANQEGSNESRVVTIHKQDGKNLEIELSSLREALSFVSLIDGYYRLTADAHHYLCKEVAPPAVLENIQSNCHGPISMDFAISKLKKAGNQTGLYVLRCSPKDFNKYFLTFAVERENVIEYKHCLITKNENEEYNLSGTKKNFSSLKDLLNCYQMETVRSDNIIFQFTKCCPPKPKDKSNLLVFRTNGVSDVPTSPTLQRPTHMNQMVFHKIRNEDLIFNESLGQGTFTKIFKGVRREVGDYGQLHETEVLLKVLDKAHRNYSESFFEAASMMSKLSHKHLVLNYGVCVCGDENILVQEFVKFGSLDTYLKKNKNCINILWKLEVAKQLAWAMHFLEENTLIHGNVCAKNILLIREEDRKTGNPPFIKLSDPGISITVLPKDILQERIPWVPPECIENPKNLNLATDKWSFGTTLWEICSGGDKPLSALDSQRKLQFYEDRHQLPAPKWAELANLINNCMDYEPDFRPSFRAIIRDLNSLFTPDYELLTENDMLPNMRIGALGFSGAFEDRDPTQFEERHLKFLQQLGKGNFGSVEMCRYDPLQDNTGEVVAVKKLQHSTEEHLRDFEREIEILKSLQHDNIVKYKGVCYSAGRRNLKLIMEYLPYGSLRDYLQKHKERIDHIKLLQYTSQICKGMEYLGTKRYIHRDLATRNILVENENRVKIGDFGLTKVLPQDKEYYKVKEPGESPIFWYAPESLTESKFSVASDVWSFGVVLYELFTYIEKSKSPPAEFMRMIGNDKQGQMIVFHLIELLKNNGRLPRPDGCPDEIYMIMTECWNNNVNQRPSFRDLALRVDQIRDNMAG

DSS-induced colitis [1] = assay: H&E staining of colon tissues in DSS-induced colitis model; type: in vivo, mice; details: 5, 10 mg/kg
Protocol: H&E Staining of Colon tissues: After dissecting and transecting the colon, a feeding needle and 5 ml syringe were used to intubate and flush the colon with ice-cold PBS until the stool was flushed out. Scissors were used to incise longitudinally from distal to proximal end of the colon and the colon tissue could then be expanded as a flat sheet. The edge of the distal colon was grasped using a pair of forceps and the colon tissue was rotated into a swiss roll. The roll was firmly grasped and transected using a 27 G ½ needle. […] The Swiss roll was then paraffin-embedded, sectioned, mounted, and stained with H&E to determine the extent of damage to the colon from the distal (inside end) to the proximal (outside end).

[2] = Pharmacokinetics in mice after oral MMT3-72 (LC-MS/MS of plasma, GI tissues, GI content); type: in vivo, C57BL/6 female mice
Protocol: LC-MS analysis of MMT3-72and MMT3-72-M2 in biological samples: MMT3-72 and MMT3-72-M2 concentrations in plasma (ng/mil) and tissues (ng/g) were determined by the LC-MS/MS method that was developed and validated for this study. The HPLC method was conducted on a Shimadzu LC-20AD HPLC system (Kyoto, Japan), and chromatographic separation was achieved using a Waters XBridage reverse phase C18 column (5 cm×2.1 mm I.D., packed with 3.5 μm). The flow rate of gradient elution was 0.4 ml/min with mobile phase A (0.1% formic acid in purified deionized water) and mobile phase B (0.1% formic acid in acetonitrile). An AB Sciex QTrap 4500 mass spectrometer (AB Sciex, Framingham, USA) in the positive-ion multiple reaction monitoring (MRM) mode was used for detection. Protonated molecular ions and the respective ion products were monitored at the transitions of m/z 811.3>737.4 for MMT3-72 and 472.3>416.0 for the MMT3-72-M2. Data was processed with software Analyst (version 1.6).
Pharmacokinetics in mice. Briefly, C57BL/6 female mice were orally dosed with 10 mg/kg MMT3-72. At 0.5, 2, 4, 12, 24 h, mice were sacrificed, and blood samples were collected by drawing directly from the heart Intestinal tissue samples were collected and homogenized in PBS to 10% homogenate. The contents of small and large intestine were collected and homogenized in PBS. Afterwards, concentrations of MMT3-72, MMT3-72-M2,5-ASA in the plasma, intestinal tissues, and intestinal content were determined by liquid chromatography-tandem mass spectrometry (LC-MS/MS) analysis using method described above.

[3] = In-vivo metabolite identification in mouse plasma, colon and feces; details: 6 h after oral 10 mg/kg MMT3-72
Protocol: Activation of MMT73-72 and Metabolite identification: In-vivo metabolite identification was conducted using mouse plasma, colon and feces samples that collected at 6 h after oral administration of MMT3-72 (10 mg/kg), Liquid chromatography tandem mass spectrometry was employed to separate and identify the possible metabolites. The LC-MS/MS method consisted of a Shimadzu LC-20AD HPLC system (Kyoto, Japan). Chromatographic separation of MMT3-72 and its metabolites was achieved using a Waters XBridage reverse phase C18 column (15 cm×2.1 mm I.D., packed with […]). A high resolution AB Sciex X500R QTOF mass spectrometer (AB Sciex, Farmingham, USA) in the positive-ion Information Dependent Acquisition (IDA) mode was used for confirmation of accurate molecular weight. The mass range was recorded from m/z 100 to 1000 Da. The collision energy was set to 50 V for TOF MSMS. Data was collected with software SCIEX OS, and then processed with software Metabolite Pilot 2.0 (AB Sciex, Farmingham, USA).

HEL 92.1.7 cells = assay: Anti-proliferative assay in HEL cells (CellTiter 96 Aqueous); type: cell-based, Human; details: 3 days
Protocol: as §2

DSS-induced colitis [4] = assay: DSS-induced colitis in mice; type: in vivo, C57BL/6 female mice; details: oral; for improvement of DAI score or disease severity (in words): 1 mg/kg; for mice that developed moderate colitis / mice that developed severe colitis / mice that developed severe colitis with gross bleeding: day 5, n=10
Protocol: In vivo efficacy of MMT3-72 in treatment of DSS-induced colitis in mice: C57BL/6 female mice 6-8 weeks purchased from Charles River Laboratories and were randomly divided into different treatment groups. Acute colitis was induced by administering 3% DSS (MP Biomedicals, CA, USA) in distilled water continuously for 5 days and the control group received pure water (Snider, et al., Methods Mol Biol 2016, 1438, 245-254). […] Drugs were administered every other day orally by gavage in volume of 0.1 mL/10 g body weight. During the model establishment, body weight, stool consistency and gross blood in feces were monitored and recorded daily. After 5 days, mice were sacrificed and blood was collected. Serum was obtained by centrifugation and stored at −80° C. for further immune assay. Colon was excised and the length was measured.
To evaluate the efficacy of MMT3-72 in the treatment of UC in vivo, a colitis model was established in mice using dextran sodium sulfate (DSS). DSS in drinking water could trigger colitis in mice. The DSS-induced colitis model is widely used because of its relatively easy administration and high similarity with human UC. In this study, mice treated with 3% DSS water developed symptoms of colitis such as bloody stools and diarrhea on day 5. Disease activity index (DAI) was monitored for the severeness of disease in mice: Normal stool consistency with negative hemoccult: score 0; Soft stools with positive hemoccult: score 1; Very soft stools with traces of blood: score 2; Watery stools with visible rectal bleeding: score 3. […]. […].

[5] = following a single oral dose; cited from earlier work

TYK2, sequence (P29597 whole entry): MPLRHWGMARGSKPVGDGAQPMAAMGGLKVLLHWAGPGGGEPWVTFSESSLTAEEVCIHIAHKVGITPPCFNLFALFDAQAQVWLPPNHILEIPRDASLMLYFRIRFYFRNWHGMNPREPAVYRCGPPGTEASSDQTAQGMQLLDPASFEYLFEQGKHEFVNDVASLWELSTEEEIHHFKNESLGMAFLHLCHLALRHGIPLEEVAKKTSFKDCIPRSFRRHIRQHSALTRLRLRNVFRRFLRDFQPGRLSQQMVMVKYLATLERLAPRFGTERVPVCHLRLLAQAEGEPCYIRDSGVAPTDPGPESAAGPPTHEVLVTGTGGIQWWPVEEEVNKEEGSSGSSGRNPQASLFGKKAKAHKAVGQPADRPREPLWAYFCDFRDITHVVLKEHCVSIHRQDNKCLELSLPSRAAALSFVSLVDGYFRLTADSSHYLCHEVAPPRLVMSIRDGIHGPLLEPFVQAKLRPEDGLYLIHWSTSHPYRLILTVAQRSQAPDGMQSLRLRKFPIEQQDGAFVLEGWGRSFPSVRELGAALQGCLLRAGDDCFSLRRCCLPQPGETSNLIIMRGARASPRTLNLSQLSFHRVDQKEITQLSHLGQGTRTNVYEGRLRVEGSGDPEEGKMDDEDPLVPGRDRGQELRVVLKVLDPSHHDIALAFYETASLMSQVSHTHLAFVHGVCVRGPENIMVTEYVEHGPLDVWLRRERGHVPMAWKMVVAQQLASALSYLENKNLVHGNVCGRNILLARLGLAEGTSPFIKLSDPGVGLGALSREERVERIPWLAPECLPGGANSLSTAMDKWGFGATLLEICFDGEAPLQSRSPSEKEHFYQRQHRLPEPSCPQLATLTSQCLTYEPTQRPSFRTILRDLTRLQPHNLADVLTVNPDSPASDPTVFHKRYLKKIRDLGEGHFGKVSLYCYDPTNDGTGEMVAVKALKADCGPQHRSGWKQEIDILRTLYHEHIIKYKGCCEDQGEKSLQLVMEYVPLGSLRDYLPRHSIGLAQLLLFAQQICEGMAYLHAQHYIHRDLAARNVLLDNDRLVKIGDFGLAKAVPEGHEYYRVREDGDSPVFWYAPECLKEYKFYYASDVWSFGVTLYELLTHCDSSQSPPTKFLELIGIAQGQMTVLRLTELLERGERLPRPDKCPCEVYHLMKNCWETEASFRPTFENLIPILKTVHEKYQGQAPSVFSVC

Cc1cnc(Nc2ccc(OCCOc3ccc(/N=N/c4ccc(C(=O)NCCC(=O)O)cc4)cc3C(=O)O)cc2)nc1Nc1cccc(S(=O)(=O)NC(C)(C)C)c1 [MMT3-72, (E)-2-(2-(4-((4-((3-(N-(tert-butyl)sulfamoyl)phenyl)amino)-5-methylpyrimidin-2-yl)amino)phenoxy)ethoxy)-5-((4-((2-carboxyethyl)carbamoyl)phenyl)diazenyl)benzoic acid]
IC50 (TYK2): 2980 nM
IC50 (SET-2 cells; Homo sapiens, 72 h): 515 nM
IC50 (JAK1): 199 nM
IC50 (JAK3): 6820 nM
IC50 (JAK2): 448 nM
epithelial loss and immune cell infiltration in colon tissue (H&E) (DSS-induced colitis [1]): reduced epithelium disruption and infiltration of immune cells in colon tissues
epithelial loss and immune cell infiltration in colon tissue (H&E) (DSS-induced colitis [1]; listed as MMT3972): reduced epithelial loss and decreased infiltration of immune cells
Cmax ([2]; female, C57BL/6, mouse, GI content (stomach, small intestine and colon content), oral 10 mg/kg MMT3-72, read-out: Cmax in GI content (stomach, small intestine and colon content)): > 50000 ng/g
detection in small intestine tissues, colon tissue or systemic circulation ([2]; oral 10 mg/kg MMT3-72, 0-24 hrs): not detected
detection in plasma, colon tissue and feces [3]: only detected in the feces with no detection in the plasma and the colon tissues
IC50 (HEL 92.1.7 cells; Homo sapiens, 72 h): 5590 nM
improvement of DAI score or disease severity (in words) (DSS-induced colitis [4]): did not improve DAI score or disease severity
improvement of DAI score versus DSS induced colitis (DSS-induced colitis [4]; 5 mg/kg): 5 fold
mice that developed moderate colitis (DSS-induced colitis [4]; 5 mg/kg): 10%
mice that developed severe colitis (DSS-induced colitis [4]; 5 mg/kg): no mouse developed severe colitis
improvement of DAI score in DSS-induced colitis model (DSS-induced colitis [4]; 10 mg/kg): 10 fold
recovery of colon length from DSS-induced colitis (DSS-induced colitis [4]; 10 mg/kg): recovered the colon length
mice that developed moderate colitis (DSS-induced colitis [4]; 10 mg/kg): no mice
mice that developed severe colitis with gross bleeding (DSS-induced colitis [4]; 10 mg/kg): no mice

N#CC[C@H](C1CCCC1)n1cc(-c2ncnc3[nH]ccc23)cn1 [Ruxolitinib]
IC50 (SET-2 cells; Homo sapiens, 72 h): ~145 nM
IC50 (HEL 92.1.7 cells; Homo sapiens, 72 h): 114 nM

Cc1cnc(Nc2ccc(OCCO)cc2)nc1Nc1cccc(S(=O)(=O)NC(C)(C)C)c1 [MMT3-72-M2, N-(tert-butyl)-3-((2-((4-(2-hydroxyethoxy)phenyl)amino)-5-methylpyrimidin-4-yl)amino)benzenesulfonamide]
IC50 (TYK2): 55.2 nM
IC50 (SET-2 cells; Homo sapiens, 72 h): 332 nM
IC50 (JAK1): 2 nM
IC50 (JAK3): 701 nM
IC50 (JAK2): 16.3 nM
Cmax ([2]; female, C57BL/6, mouse, colon tissue and small intestinal tissues, oral 10 mg/kg MMT3-72, read-out: Cmax in colon tissue and small intestinal tissues): > 1500 ng/g
Cmax ([2]; female, C57BL/6, mouse, plasma, oral 10 mg/kg MMT3-72, read-out: Cmax in plasma): 8 ng/mL
concentration at 24 h ([2]; female, C57BL/6, mouse, small and large intestine tissues, oral 10 mg/kg MMT3-72, at 24 hrs, read-out: Cmin in small and large intestine tissues): 88.5 ng/mL
concentration in colon content relative to small intestine content ([2]; oral 10 mg/kg MMT3-72): 10 fold
time after which undetectable in plasma ([2]; oral 10 mg/kg MMT3-72): 4 h
detection in plasma, colon tissue and feces [3]: only detected in the colon tissues and the feces with low level in the plasma
IC50 (HEL 92.1.7 cells; Homo sapiens, 72 h): 2590 nM

Deucravacitinib
IC50 (SET-2 cells): 7380 nM
IC50 (HEL 92.1.7 cells): ~347000 nM

CC[C@@H]1CN(C(=O)NCC(F)(F)F)C[C@@H]1c1cnc2cnc3[nH]ccc3n12 [Upadacitinib]
IC50 (SET-2 cells; Homo sapiens, 72 h): 69.6 nM
IC50 (HEL 92.1.7 cells; Homo sapiens, 72 h): 1010 nM

COCCOCc1cc(Nc2ncc(C)c(Nc3cccc(S(=O)(=O)NC(C)(C)C)c3)n2)ccc1OCCN1CCCC1 [MMT3-83]
IC50 (SET-2 cells): 645 nM
IC50 (HEL 92.1.7 cells): 2040 nM

C[C@@H]1CCN(C(=O)CC#N)C[C@@H]1N(C)c1ncnc2[nH]ccc12 [Tofacitinib, reference compound]
improvement of DAI score or disease severity (in words) (DSS-induced colitis [4]): did not improve DAI score or disease severity
improvement of DAI score (in words) (DSS-induced colitis [4]; 5 mg/kg): did not show any improvement of DAI score
mice that developed moderate colitis (DSS-induced colitis [4]; 5 mg/kg): 80%
mice that developed severe colitis (DSS-induced colitis [4]; 5 mg/kg): 40%
improvement of DAI score (in words) (DSS-induced colitis [4]; 10 mg/kg): showed improvement of DAI score
recovery of colon length from DSS-induced colitis (DSS-induced colitis [4]; 10 mg/kg): recovered the colon length
mice that developed moderate colitis (DSS-induced colitis [4]; 10 mg/kg): 20%
mice that developed severe colitis with gross bleeding (DSS-induced colitis [4]; 10 mg/kg): 10%

Cc1cnc(Nc2ccc(OCCN3CCCC3)cc2)nc1Nc1cccc(S(=O)(=O)NC(C)(C)C)c1 [Fedratinib]
portion excreted in feces as unchanged drug [5]: 23%
portion excreted to GI tract in feces [5]: 77%
IC50 (SET-2 cells; Homo sapiens, 72 h): 210 nM
IC50 (HEL 92.1.7 cells; Homo sapiens, 72 h): 904 nM
